Measurements reported in patent US6784184B2, “5-(arylsulfonyl)-,5-(arylsulfinyl), and 5-(arylsulfanyl)-thiazolidine-2,4-diones useful for inhibition of farnesyl-protein transferase” (Wyeth Holdings Corporation, priority 2001, dated 2004).

Assays:
[1] = target: FPTase (H-Ras substrate) (UniProt P29702+P49355); experiment: in vitro FTase Inhibition Assay, H-Ras as substrate for farnesylation; type: biochemical; conditions: H-Ras used as substrate for farnesylation
Method: (§1) The ability of the compounds of this invention to inhibit FPTase was evaluated in the standard pharmacological in vitro test procedures described below.
(§2) Methods—1. […] 2. Solution #1 is added to FPTase reaction in a volume of […]. 3. Standard reaction mix, […], contains 50 mM Tris (7.5), […], 3 mM MgCl2, 20 mM KCl, 5 mM DTT, 0.2% octyl-B-glucoside, 1% DMSO, […], 10 ng FPTase, and various concentrations of FPTase inhibitors. 4. Incubate for 30-90 min at […] 5. Stop reactions with TCA/SDS (6%/2%), hold at 4° C. for 45-60 min. 6. Filter by manifold or 96 well plate, wash filter 3-5× with TCA (6%). 7. Add scintillant to filters, measure ^3H-FPP incorporation into Ras protein.
(§3) (cpm from precipitated Ras with test compounds)−(background cpm)×100=% inhibition.
(§4) (cpm from precipitated Ras without test compounds)−(background cpm)

[2] = target: FPTase (K-Ras substrate) (UniProt P29702+P49355); experiment: in vitro FTase Inhibition Assay, K-Ras as substrate for farnesylation; type: biochemical; conditions: K-Ras used as substrate for farnesylation
Method: as §1, §2, §3, §4

IC50 [1]	IC50 [2]	Compound
30 to 50 nM	100 to 3200 nM	COc1ccc(S(=O)(=O)C2(CCCC#Cc3cc(NC(=O)OCc4ccccc4)ccc3C)SC(=O)N(C(=O)OCc3ccccc3)C2=O)cc1 (stereo not shown) [Example 226, Benzyl 5-[5-(5-{[(benzyloxy)carbonyl]-amino}-2-methylphenyl)pent-4-ynyl]-5-[(4-methoxyphenyl)sulfonyl]-2,4-dioxo-1,3-thiazolidine-3-carboxylate]
3.3 nM	33 nM	COc1ccc(S(=O)(=O)C2(CCCC#Cc3cc(NC(=O)OC(C)(C)C)ccc3C)SC(=O)NC2=O)cc1 (single isomer, unassigned; less polar) [Example 222, Enantiomer of(3-{5-[5-(4-Methoxybenzenesulfonyl)-2,4-dioxothiazolidin-5-yl]pent-1-ynyl}-4-methylphenyl)carbamic Acid tert-Butyl Ester (less polar)]
100 nM	600 to 790 nM	Cc1cc([N+](=O)[O-])ccc1C#CCCCC1(S(=O)(=O)c2ccc(Oc3ccccc3)cc2)SC(=O)NC1=O (stereo not shown) [Example 129, 5-[5-(2-Methyl-4-nitrophenyl)pent-4-ynyl]-5-(4-phenoxybenzenesulfonyl)-thiazolidine-2,4-dione]
10 to 30 nM	110 to 1000 nM	COc1ccc(S(=O)(=O)C2(CCCC#Cc3ccccc3Cl)SC(=O)NC2=O)cc1 (stereo not shown) [Example 101, 5-[5-(2-Chlorophenyl)pent-4-ynyl]-5-(4-methoxybenzenesulfonyl)-thiazolidine-2,4-dione]
7.4 to 32 nM	16 to 68 nM	COc1ccc(S(=O)(=O)C2(CCCC#Cc3cc(NC(=O)OC(C)(C)C)ccc3C)SC(=O)NC2=O)cc1 (stereo not shown) [Example 150, (3-{5-[5-(4-Methoxybenzenesulfonyl)-2,4-dioxothiazolidin-5-yl]pent-1-ynyl}-4-methylphenyl)carbamic Acid tert-Butyl Ester]
110 to 150 nM	300 to 550 nM	O=C1NC(=O)C(CCCC#Cc2ccc(Cl)cc2)(S(=O)(=O)c2ccc(OCc3ccccc3)cc2)S1 (stereo not shown) [Example 111, 5-(4-Benzyloxybenzenesulfonyl)-5-[5-(4-chlorophenyl)pent-4-ynyl]-thiazolidine-2,4-dione]
50 to 150 nM	1500 to 1700 nM	O=C1NC(=O)C(CCCC#Cc2ccc(Cl)cc2)(S(=O)(=O)c2ccc(F)cc2)S1 (stereo not shown) [Example 105, 5-[5-(4-Chlorophenyl)pent-4-ynyl]-5-(4-fluorobenzenesulfonyl)-thiazolidine-2,4-dione]
150 nM	> 10000 nM	COc1cccc(S(=O)(=O)C2(CCCC#Cc3cccs3)SC(=O)NC2=O)c1 (stereo not shown) [Example 164, 5-(3-Methoxybenzenesulfonyl)-5-(5-thiophen-2-yl-pent-4-ynyl)-thiazolidine-2,4-dione]
20 to 30 nM	510 to 1000 nM	COc1ccc(S(=O)(=O)C2(CCCC#Cc3ccc(Cl)cc3Cl)SC(=O)NC2=O)cc1 (stereo not shown) [Example 117, 5-[5-(2,4-Dichlorophenyl)pent-4-ynyl]-5-(4-methoxybenzenesulfonyl)-thiazolidine-2,4-dione]
30 to 50 nM	900 to 10000 nM	Cc1ccc(S(=O)(=O)C2(CCCC#Cc3ccc(Cl)cc3)SC(=O)NC2=O)cc1 (stereo not shown) [Example 103, 5-[5-(4-Chlorophenyl)pent-4-ynyl]-5-(p-tolylsulfonyl)-thiazolidine-2,4-dione]
4.5 to 120 nM	23 to 31 nM	Cc1ccc(NC(=O)OC(C)(C)C)cc1C#CCCCC1(S(=O)(=O)c2ccc(I)cc2)SC(=O)NC1=O (stereo not shown) [Example 148, (3-{5-[5-(4-Iodobenzenesulfonyl)-2,4-dioxothiazolidin-5-yl]-pent-1-ynyl}-4-methylphenyl)carbamic Acid tert-Butyl Ester]
3.2 to 32 nM	30 to 320 nM	COc1ccc(S(=O)(=O)C2(CCCC#Cc3cc(NC(=O)OCc4ccc([N+](=O)[O-])cc4)ccc3C)SC(=O)NC2=O)cc1 (stereo not shown) [Example 176, (3-{5-[5-(4-Methoxybenzenesulfonyl)-2,4-dioxothiazolidin-5-yl]pent-1-ynyl}-4-methylphenyl)carbamic Acid 4-Nitro-Benzyl Ester]
150 to 300 nM	1000 to 3600 nM	5-[5-(4-Chloro-2-methylphenyl)pent-4-ynyl]-5-(4-trifluoromethoxy-benzenesulfonyl)thiazolidine-2,4-dione [Example 140]

Continued, compound first:

Compound	IC50 [1]	IC50 [2]
CCCCOC(=O)Nc1ccc(C)c(C#CCCCC2(S(=O)(=O)c3ccc(OC)cc3)SC(=O)N(C(=O)OCCCC)C2=O)c1 (stereo not shown) [Example 231, Butyl 5-(5-{5-[(butoxycarbonyl)amino]-2-methylphenyl}pent-4-ynyl)-5-[(4-methoxy-phenyl)sulfonyl]-2,4-dioxo-1,3-thiazolidine-3-carboxylate]	10 to 21 nM	100 to 1000 nM
COc1ccc(S(=O)(=O)C2(CC#Cc3ccc(-c4ccccc4)cc3)SC(=O)NC2=O)cc1 (stereo not shown) [Example 171, 5-(3-Biphenyl-4-yl-prop-2-ynyl)-5-(4-methoxybenzenesulfonyl)-thiazolidine-2,4-dione]	200 nM	3300 nM
O=C1NC(=O)C(CCCC#Cc2cccc([N+](=O)[O-])c2)(S(=O)(=O)c2ccc(Oc3ccccc3)cc2)S1 (stereo not shown) [Example 119, 5-[5-(3-Nitrophenyl)pent-4-ynyl]-5-(4-phenoxybenzenesulfonyl)-thiazolidine-2,4-dione]	130 to 140 nM	1300 to 1700 nM
COc1ccc(S(=O)(=O)C2(CCCC#Cc3cc(NC(=O)OCC(C)C)ccc3C)SC(=O)N(C(=O)OCC(C)C)C2=O)cc1 (stereo not shown) [Example 232, Isobutyl 5-(5-{5-[(isobutoxycarbonyl)-amino]-2-methylphenyl}pent-4-ynyl)-5-[(4-methoxyphenyl)sulfonyl]-2,4-dioxo-1,3-thiazolidine-3-carboxylate]	5 to 10 nM	40 to 640 nM
O=C1NC(=O)C(CCCC#Cc2ccc(-n3cccc3)cc2)(S(=O)(=O)c2ccc(I)cc2)S1 (stereo not shown) [Example 162, 5-(4-Iodo-benzenesulfonyl)-5-[5-(4-pyrrol-1-yl-phenyl)pent-4-ynyl]-thiazolidine-2,4-dione]	1210 nM	4000 nM
COc1ccc(S(=O)(=O)C2(CCCC#Cc3cc(NC(=O)Oc4ccc(Cl)cc4)ccc3C)SC(=O)NC2=O)cc1 (stereo not shown) [Example 177, (3-{5-[5-(4-Methoxybenzenesulfonyl)-2,4-dioxothiazolidin-5-yl]pent-1-ynyl}-4-methylphenyl)carbamic Acid 4-Chloro-phenyl Ester]	11 to 32 nM	86 to 100 nM
O=C1NC(=O)C(CCCC#Cc2ccc(Cl)cc2)(S(=O)(=O)c2ccc([N+](=O)[O-])cc2)S1 (stereo not shown) [Example 110, 5-[5-(4-Chlorophenyl)pent-4-ynyl]-5-(4-nitrobenzenesulfonyl)-thiazolidine-2,4-dione]	400 nM	7000 nM
COC(=O)c1ccc(C)c(C#CCCCC2(S(=O)(=O)c3ccc(OC)cc3)SC(=O)NC2=O)c1 (stereo not shown) [Example 155, 3-{5-[5-(4-Methoxybenzenesulfonyl)-2,4-dioxo-thiazolidin-5-yl]-pent-1-ynyl}-4-methylbenzoic Acid Methyl Ester]	10 to 320 nM	420 to 440 nM
COc1ccc(S(=O)(=O)C2(CCCC#Cc3cc(NC(=O)OCC(C)(C)C)ccc3C)SC(=O)NC2=O)cc1 (stereo not shown) [Example 180, (3-{5-[5-(4-Methoxybenzenesulfonyl)-2,4-dioxothiazolidin-5-yl]pent-1-ynyl}-4-methylphenyl)carbamic Acid Neopentyl Ester]	2 to 32 nM	7 to 90 nM
5-[5-(2-Methyl-4-nitrophenyl)pent-4-ynyl]-5-[4-(pyridin-4-yloxy)-benzenesulfonyl]-thiazolidine-2,4-dione [Example 128]	1 to 32 nM	20 to 220 nM
Cc1ccc(S(=O)(=O)C2(CC#Cc3ccc(Oc4ccccc4)cc3)SC(=O)NC2=O)cc1 (stereo not shown) [Example 170, 5-[3-(4-Phenoxyphenyl)prop-2-ynyl]-5-(toluene-4-sulfonyl)-thiazolidine-2,4-dione]	380 nM	4700 nM
COc1ccc(S(=O)(=O)C2(CCCC#Cc3cc(NC(=O)OC(C)C)ccc3C)SC(=O)NC2=O)cc1 (stereo not shown) [Example 179, (3-{5-[5-(4-Methoxybenzenesulfonyl)-2,4-dioxothiazolidin-5-yl]pent-1-ynyl}-4-methylphenyl)carbamic Acid Isopropyl Ester]	2 to 32 nM	5 to 70 nM
Cc1ccc(C)c(C#CCCCC2(S(=O)(=O)c3ccc(I)cc3)SC(=O)NC2=O)c1 (stereo not shown) [Example 134, 5-[5-(2,5-Dimethylphenyl)pent-4-ynyl]-5-(4-iodobenzenesulfonyl)-thiazolidine-2,4-dione]	14 to 850 nM	430 to 680 nM
COc1ccc(S(=O)(=O)C2(CCCC#Cc3cc(NC(=O)OC(C)C)ccc3C)SC(=O)N(C(=O)OC(C)C)C2=O)cc1 (stereo not shown) [Example 229, Isopropyl 5-(5-{5-[(isopropoxycarbonyl)-amino]-2-methylphenyl}pent-4-ynyl)-5-[(4-methoxyphenyl)sulfonyl]-2,4-dioxo-1,3-thiazolidine-3-carboxylate]	6 to 20 nM	100 to 700 nM
Cc1ccc(S(=O)(=O)C2(CCC/C=C\c3ccc(Cl)cc3)SC(=O)NC2=O)cc1 (stereo not shown) [Example 217, 5-[(4Z)-5-(4-Chloro-phenyl)pent-4-enyl]-5-(toluene-4-sulfonyl)-thiazolidine-2,4-dione]	100 nM	8500 nM
COc1ccc(S(=O)(=O)C2(CCCC#Cc3ccc([N+](=O)[O-])cc3OC)SC(=O)NC2=O)cc1 (stereo not shown) [Example 132, 5-(4-Methoxybenzenesulfonyl)-5-[5-(2-methoxy-4-nitrophenyl)pent-4-ynyl]-thiazolidine-2,4-dione]	41 to 73 nM	210 to 1000 nM
